Data published in paper PMC12677652, “Procyanidin B3 and Its Derivatives Alleviate Neuronal Injury by Targeting G3BP1 for Ischemic Stroke Therapy” (Advanced Science, 2025).

How the values were obtained:
G3BP1 = molecular target: T1, G3BP1 (Mus musculus, UniProt P97855); assay: Pull-down analysis with PB3-BP probe in HT22 lysates; type: binding; details: 200 µM PB3‐BP, blocked by free PB3
T1 construct: endogenous in cells; host or cells: HT22 cell lysate
Description: HT22 cells were grown to 90% confluency and harvested by trypsin and resuspended in 1 mL PBS (containing protease inhibitors and 0.1% Triton X‐100). The samples were subjected to three freeze–thaw cycles in liquid nitrogen. Each cell lysate was centrifuged (12000 g for 30 min at 4 °C), and the supernatant was collected. The protein concentrations were determined by a BCA protein assay kit (Thermo Scientific, USA). The lysates were adjusted to 2 mg mL^−1 and treated with 200 µM PB3 or DMSO, labeled with 200 µM of PB3‐BP or DMSO, and then put on ice under UV radiation at 365 nm for 1 h. The labeled proteins were precipitated with chloroform‐methanol. Then the precipitations were resuspended with 1.2% SDS/PBS and combined with 300 µM biotin‐PEG3‐azide, 100 µM tris(benzyltriazolylmethyl)amine, 1 mM tris(2‐carboxyethyl)phosphine hydrochloride, and 1 mM CuSO4 for 1 h. After this reaction, the proteomes were extracted again with chloroform‐methanol. The proteins were solubilized with 1.2% SDS/PBS and diluted 5x with PBS. The solubilized proteins were incubated with streptavidin beads (100 µL of slurry, Thermo Scientific, USA) at room temperature for 3 h with rotation. […] The eluted proteins were analyzed by SDS‐polyacrylamide gel electrophoresis and immunoblotted with anti‐G3BP1 antibody.

OGD/R‐treated HT22 cells = assay: Neuroprotective effect on OGD/R-treated HT22 cells, cell viability by CCK-8; type: cell-based; details: for viability at 2 µM / viability at 20 µM: Mus musculus, HT-22, 6 h OGD, 24 h reoxygenation with compound, relative to control cells, mean ± S.D., n = 3
Description: HT22 cells were washed with phosphate buffered saline (PBS), then DMEM sugar‐free medium (Gibco, USA) was added and placed in the anaerobic incubator of 5% CO2, 1% O2, and 37 °C for 6 h. PB3 or other compounds were previously dissolved in DMEM/F‐12 with 10% FBS and 1% penicillin/streptomycin. After undergoing OGD for 6 h, the medium was replaced by DMEM/F‐12 with 10% FBS and 1% penicillin/streptomycin containing PB3 or other compounds and kept in a humidified 5% CO2, 37 °C incubator for 24 h.
The CCK‐8 assay kit (Yeasen, China) was used to assess cell viability. All operations were performed following instructions. HT22 cells were seeded into the 96‐well plate (3000 cells per well). The cells were cultured at 37 °C with 5% CO2 in a humidified incubator overnight. After 6 h of OGD, the medium was replaced by DMEM/F‐12 with 10% FBS and 1% penicillin/streptomycin containing PB3 or other compounds and kept in a humidified 5% CO2, 37 °C incubator for 24 h. Then, the cells were washed with PBS, the medium was replaced with DMEM/F‐12 with 10% FBS and 1% penicillin/streptomycin containing 10% CCK‐8 solution, and incubated for 1 h at 37 °C. The absorbance was assessed by a Synergy H1 multi‐mode microplate reader (BioTek, USA) at 450 nm.

[1] = type: physicochemical
Description: Furthermore, a small‐molecule procyanidin B3‐benzophenone probe (PB3‐BP, 2, Figure 2G) was synthesized based on a non‐protective condensation strategy (Scheme S1, Supporting Information).^[ [29] ^] The stability of compound 2 is poor, and its structure is determined by 2D‐NMR after acetylation (Figure S4, Supporting Information). […] To identify the specific targeting sites of PB3 on G3BP1, the ultraviolet‐crosslinked complex of PB3‐BP/G3BP1 was digested with trypsin and subjected to LC‐MS/MS analysis.^[ [30] ^] […] To evaluate the affinity between the wild type and four mutants (L105A, R107A, Q134A, D135A) ^[ [34] ^] of the G3BP1 NTF2L domain and PB3, molecular dynamics simulations were performed to analyze each complex system based on docking results.^[ [35] ^]

T1 sequence (P97855 whole entry): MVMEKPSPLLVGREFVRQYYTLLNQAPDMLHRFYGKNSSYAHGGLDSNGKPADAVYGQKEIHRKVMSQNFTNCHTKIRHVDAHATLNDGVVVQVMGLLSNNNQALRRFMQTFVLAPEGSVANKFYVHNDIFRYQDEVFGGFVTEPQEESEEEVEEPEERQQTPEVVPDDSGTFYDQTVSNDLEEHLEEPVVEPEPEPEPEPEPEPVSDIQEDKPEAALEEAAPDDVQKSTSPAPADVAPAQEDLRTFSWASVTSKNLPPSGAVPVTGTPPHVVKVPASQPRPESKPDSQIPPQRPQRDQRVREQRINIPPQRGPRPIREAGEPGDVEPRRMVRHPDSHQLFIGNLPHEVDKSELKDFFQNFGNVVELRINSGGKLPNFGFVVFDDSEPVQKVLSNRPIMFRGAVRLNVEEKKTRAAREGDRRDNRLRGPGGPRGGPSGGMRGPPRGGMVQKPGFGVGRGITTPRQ

With `C#CCN(Cc1ccc(C(=O)c2ccccc2)cc1)C(=O)COc1cc(O)c([C@@H]2c3c(O)cc(O)cc3O[C@H](c3ccc(O)c(O)c3)[C@H]2O)c2c1C[C@H](O)[C@@H](c1ccc(O)c(O)c1)O2` [Compound 2, N‐(4‐Benzoylbenzyl)‐2‐(((2R,2′R,3S,3′S,4S)‐2,2′‐bis(3,4‐dihydroxyphenyl)‐3,3′,5,7,7′‐pentahydroxy‐[4,8′‐bichroman]‐5′‐yl)oxy)‐N‐(prop‐2‐yn‐1‐yl)acetamide] the “pull-down of G3BP1” value (G3BP1) was “pulled down”, the neuroprotective activity (OGD/R‐treated HT22 cells; 100 µM, OGD/R‐treated HT22 cells) was “retained the neuroprotective activity of PB3” and the stability [1] was “poor”.

With `Cc1c(O)cc(O)c2c1O[C@H](c1ccc(O)c(O)c1)[C@@H](O)[C@@H]2c1c(O)cc(O)c2c1O[C@H](c1ccc(O)c(O)c1)[C@@H](O)C2` [Compound 6a, 8‐Methyl‐(+)‐Catechin‐(4α,8)‐(+)‐Catechin] the viability at 2 µM (OGD/R‐treated HT22 cells) was 56.7 ± 2.22% and the viability at 20 µM (OGD/R‐treated HT22 cells) was 70.2 ± 2.92%.

`CCc1c(O)cc(O)c2c1O[C@H](c1ccc(O)c(O)c1)[C@@H](O)[C@@H]2c1c(O)cc(O)c2c1O[C@H](c1ccc(O)c(O)c1)[C@@H](O)C2` [Compound 6b, 8‐Ethyl‐(+)‐Catechin‐(4α,8)‐(+)‐Catechin] showed a viability at 2 µM (OGD/R‐treated HT22 cells) of 62 ± 9.21% and a viability at 20 µM (OGD/R‐treated HT22 cells) of 73.6 ± 4.78%.

Molecule `CCCc1c(O)cc(O)c2c1O[C@H](c1ccc(O)c(O)c1)[C@@H](O)[C@@H]2c1c(O)cc(O)c2c1O[C@H](c1ccc(O)c(O)c1)[C@@H](O)C2` [Compound 6d, 8‐Propyl‐(+)‐Catechin‐(4α,8)‐(+)‐Catechin] has a viability at 2 µM (OGD/R‐treated HT22 cells) of 62.1 ± 3.73% and a viability at 20 µM (OGD/R‐treated HT22 cells) of 78.8 ± 1.43%.

With `CC(C)Cc1c(O)cc(O)c2c1O[C@H](c1ccc(O)c(O)c1)[C@@H](O)[C@@H]2c1c(O)cc(O)c2c1O[C@H](c1ccc(O)c(O)c1)[C@@H](O)C2` [Compound 6e, 8‐Isobutyl‐(+)‐Catechin‐(4α,8)‐(+)‐Catechin] the viability at 2 µM (OGD/R‐treated HT22 cells) was 58.5 ± 8.12% and the viability at 20 µM (OGD/R‐treated HT22 cells) was 67 ± 2.7%.

`Oc1ccc([C@H]2Oc3c(-c4ccccc4)c(O)cc(O)c3[C@@H](c3c(O)cc(O)c4c3O[C@H](c3ccc(O)c(O)c3)[C@@H](O)C4)[C@@H]2O)cc1O` [Compound 6f, 8‐Phenyl‐(+)‐Catechin‐(4α,8)‐(+)‐Catechin] gave a viability at 2 µM (OGD/R‐treated HT22 cells) of 59.7 ± 7.43% and a viability at 20 µM (OGD/R‐treated HT22 cells) of 70.4 ± 7.72%.

`Oc1ccc([C@H]2Oc3c(-c4ccncc4)c(O)cc(O)c3[C@@H](c3c(O)cc(O)c4c3O[C@H](c3ccc(O)c(O)c3)[C@@H](O)C4)[C@@H]2O)cc1O` [Compound 6g, 8‐(Pyridin‐4‐yl)‐(+)‐Catechin‐(4α,8)‐(+)‐Catechin] gave a viability at 2 µM (OGD/R‐treated HT22 cells) of 55.9 ± 8.56% and a viability at 20 µM (OGD/R‐treated HT22 cells) of 71.4 ± 1.74%.

Work on `Oc1ccc([C@H]2Oc3c(-c4cccnc4)c(O)cc(O)c3[C@@H](c3c(O)cc(O)c4c3O[C@H](c3ccc(O)c(O)c3)[C@@H](O)C4)[C@@H]2O)cc1O` [Compound 6h, 8‐(Pyridin‐3‐yl)‐(+)‐Catechin‐(4α,8)‐(+)‐Catechin] yielded a viability at 2 µM (OGD/R‐treated HT22 cells) of 58.8 ± 7.12% and a viability at 20 µM (OGD/R‐treated HT22 cells) of 75.3 ± 4.68%.

In the case of `CC(=O)O[C@H]1[C@H](c2c(O)cc(O)c3c2O[C@H](c2ccc(O)c(O)c2)[C@@H](OC(C)=O)C3)c2c(O)cc(O)cc2O[C@@H]1c1ccc(O)c(O)c1` [Compound 8, 3‐O‐Acetyl‐(+)‐Catechin‐(4α,8)‐[3‐O‐Acetyl‐(+)‐Catechin]], the viability at 2 µM (OGD/R‐treated HT22 cells) is reported as 62 ± 5.58% and the viability at 20 µM (OGD/R‐treated HT22 cells) is reported as 69.3 ± 6.73%.

Molecule `COc1cc(OC)c2c(c1)O[C@H](c1ccc(OC)c(OC)c1)[C@@H](O)[C@@H]2c1c(OC)cc(OC)c2c1O[C@H](c1ccc(OC)c(OC)c1)[C@@H](O)C2` [Compound 9, 5,7,3′,4′‐Tetra‐O‐Methyl‐(+)‐Catechin‐(4α, 8)‐[5,7,3′,4′‐Tetra‐O‐Methyl‐(+)‐Catechin]] has a viability at 2 µM (OGD/R‐treated HT22 cells) of 52.6 ± 7.34% and a viability at 20 µM (OGD/R‐treated HT22 cells) of 66.8 ± 1.89%.

In the case of `COc1cc([C@H]2Oc3cc(O)cc(O)c3[C@@H](c3c(O)cc(O)c4c3O[C@H](c3ccc(O)c(O)c3)[C@@H](O)C4)[C@@H]2O)ccc1O` [Compound 13a, 3′‐O‐Methyl‐(+)‐Catechin‐(4α,8)‐(+)‐Catechin], the viability at 2 µM (OGD/R‐treated HT22 cells) is reported as 59.6 ± 2.82% and the viability at 20 µM (OGD/R‐treated HT22 cells) is reported as 65.5 ± 4.74%.

Molecule `COc1ccc([C@H]2Oc3cc(O)cc(O)c3[C@@H](c3c(O)cc(O)c4c3O[C@H](c3ccc(O)c(O)c3)[C@@H](O)C4)[C@@H]2O)cc1O` [Compound 13b, 4′‐O‐Methyl‐(+)‐Catechin‐(4α,8)‐(+)‐Catechin] has a viability at 2 µM (OGD/R‐treated HT22 cells) of 57.5 ± 7.11% and a viability at 20 µM (OGD/R‐treated HT22 cells) of 70.54 ± 0.41%.

With `COc1cc([C@H]2Oc3c(c(O)cc(O)c3[C@@H]3c4c(O)cc(O)cc4O[C@H](c4ccc(O)c(O)c4)[C@H]3O)C[C@@H]2O)ccc1O` [Compound 13c, (+)‐Catechin‐(4α,8)‐[3′‐O‐Methyl‐(+)‐Catechin]] the viability at 2 µM (OGD/R‐treated HT22 cells) was 66.2 ± 10.6% and the viability at 20 µM (OGD/R‐treated HT22 cells) was 66.1 ± 2.9%.

`COc1ccc([C@H]2Oc3c(c(O)cc(O)c3[C@@H]3c4c(O)cc(O)cc4O[C@H](c4ccc(O)c(O)c4)[C@H]3O)C[C@@H]2O)cc1O` [Compound 13d, (+)‐Catechin‐(4α,8)‐[4′‐O‐Methyl‐(+)‐Catechin]] gave a viability at 2 µM (OGD/R‐treated HT22 cells) of 63 ± 6.27% and a viability at 20 µM (OGD/R‐treated HT22 cells) of 69 ± 8.76%.

In the case of `CC1=NN(c2ccccc2)C(=O)C1` [EDA, edaravone, reference compound], the viability at 2 µM (OGD/R‐treated HT22 cells) is reported as 60.8 ± 7.4% and the viability at 20 µM (OGD/R‐treated HT22 cells) is reported as 71.5 ± 9.84%.
